The record followed here is patent US20150173356A1, “COMPOSITIONS OF VOLATILE ORGANIC COMPOUNDS AND METHODS OF USE THEREOF” (Synthetic Genomics, Inc., priority 2009, published 2015).

What all share (assay): Petri plate (PDA) volatile bioassay, liquid in a small cup in the centre of the plate
What all share (assay type): cell-based
Settings in all cases: 2.5-20 microliters in cup, sealed plate, 3 days

Experiment [1] concerns Pythium ultimum. As to the method: (§1) To test the bioactivity, the mixture was placed in a small cup in the center of a Petri plate with potato dextrose agar (PDA) (Strobel et al., 2001 Microbiology 147: 2943-2950). The volumes of liquid tested were 0, 2.5, 5.0, 10.0 and 20 microliters as per Strobel et al., supra. Then small cubes of fungal inoculum grown on PDA were also applied to the plate. The plates were sealed with parafilm and incubated for 3 days, at which time measurements of hyphal development were made. Also, after 3 days the small plug of fungal inoculum was removed from the plate and transferred to a fresh PDA plate to determine if the test fungus was still alive (capable of growth) and this was recorded.

Experiment [2] relates to Phytophthora palmivora. As to the method: as §1
Experiment [3] relates to Ganoderma boninense. As to the method:
as §1

Each structure is given as a SMILES string.

Consider `COC(=O)C(C)C` [methyl isobutyrate, methyl-2-methylpropanoate], for which the “growth inhibition (hyphal development)” value in experiment [1], in experiment [2] and in experiment [3] was “no growth inhibition” each time.

As for `CC(C)C(=O)O` [isobutyric acid, 2-methyl propanoic acid], the “growth inhibition (hyphal development)” value in experiment [1], in experiment [2] and in experiment [3] was “inhibited” in each case. The “test fungus still alive (capable of growth) after transfer of inoculum plug to fresh PDA” value in experiment [1], in experiment [2] and in experiment [3] was “not killed” throughout.
